Test results from PubChem BioAssay (NCI).
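Here, GI50 denotes the concentration required for 50% inhibition of growth. TGI is the concentration that stops growth completely.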

Columns and labels:
Test in all cases: NCI anticancer screen, dose series, 384-well format
786-0 renal = test system: 786-0 renal
ACHN renal = test system: ACHN renal
EKVX NSCLC = test system: EKVX NSCLC
HCT-116 colon = test system: HCT-116 colon
IGROV1 ovarian = test system: IGROV1 ovarian
K-562 leukemia = test system: K-562 leukemia
NCI-H522 lung = test system: NCI-H522 lung
NCI/ADR-RES ovarian = test system: NCI/ADR-RES ovarian
OVCAR-8 ovarian = test system: OVCAR-8 ovarian
RXF 393 renal = test system: RXF 393 renal
SF-268 CNS = test system: SF-268 CNS
SR leukemia = test system: SR leukemia
UACC-257 melanoma = test system: UACC-257 melanoma

`CC(F)(F)c1cc(F)ccc1-c1sc2cc(O)ccc2c1Oc1ccc(/C=C/C(=O)O)cc1` gave a GI50 ([…]-0 renal) of 14.6 µM, a TGI (786-0 renal) of 33.4 µM and a GI50 (ACHN renal) of 17 µM. For the same compound, the TGI (ACHN renal) was 37.8 µM, the GI50 (EKVX NSCLC) was 16.9 µM and the TGI (EKVX NSCLC) was 37.9 µM. The GI50 (HCT-116 colon) was 15.6 µM, the TGI (HCT-116 colon) was 30.5 µM and the GI50 (IGROV1 ovarian) was 18.1 µM. It also gave a TGI (IGROV1 ovarian) of 39.3 µM, a GI50 (K-562 leukemia) of 10.9 µM and a TGI (K-562 leukemia) of 24.4 µM. It also gave a GI50 (NCI-H522 lung) of 8.38 µM, a TGI (NCI-H522 lung) of 21.3 µM and a GI50 (NCI/ADR-RES ovarian) of 16.5 µM. The TGI (NCI/ADR-RES ovarian) was over 100 µM, the GI50 (OVCAR-8 ovarian) was 25.4 µM and the TGI (OVCAR-8 ovarian) was over 100 µM. For the same compound, the GI50 (RXF 393 renal) was 5 µM, the TGI (RXF 393 renal) was 18.5 µM and the GI50 (SF-268 CNS) was 16.7 µM. The TGI (SF-268 CNS) was 37.2 µM, the GI50 (SR leukemia) was 2.08 µM and the TGI (SR leukemia) was 4.33 µM. The GI50 (UACC-257 melanoma) was 17 µM and the TGI (UACC-257 melanoma) was 36.4 µM.
